Our source for the Ki values is ChEMBL document CHEMBL1221213, “Biomimetic synthesis of the IDO inhibitors exiguamine A and B” (Nat Chem Biol, 2008).

The target in this assay is Indoleamine 2,3-dioxygenase 1 (Homo sapiens, UniProt P14902). Put plainly: Inhibition of human recombinant indoleamine-2,3-dioxygenase.
Chain of Indoleamine 2,3-dioxygenase 1 (P14902 whole entry): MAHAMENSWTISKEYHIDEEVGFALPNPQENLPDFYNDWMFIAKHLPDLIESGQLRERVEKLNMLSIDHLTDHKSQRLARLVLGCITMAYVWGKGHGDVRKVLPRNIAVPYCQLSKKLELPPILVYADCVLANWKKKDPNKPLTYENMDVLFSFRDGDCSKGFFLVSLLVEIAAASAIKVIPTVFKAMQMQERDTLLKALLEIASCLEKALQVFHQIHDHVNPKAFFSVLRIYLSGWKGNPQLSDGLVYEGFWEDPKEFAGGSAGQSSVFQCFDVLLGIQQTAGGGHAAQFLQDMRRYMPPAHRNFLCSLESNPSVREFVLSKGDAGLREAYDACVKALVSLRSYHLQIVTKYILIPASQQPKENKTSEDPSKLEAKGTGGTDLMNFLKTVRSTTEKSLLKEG

As for `CN(C)CCc1ccc(O)c(O)c1C1=C(C2C(=O)N(C)C(=O)N2C)C(=O)c2c(CCN)c[nH]c2C1=O` (configuration not stated), the inhibitory constant (Ki) (usually a measure of affinity in units of concentration, obtained from inhibition or displacement) turned out to be 80 nM.

For the compound `CN1C(=O)N(C)[C@]2(Oc3c(O)cc4c(c3C3=C2C(=O)c2c(CCN)c[nH]c2C3=O)[C@H](O)C[N+]4(C)C)C1=O` [EXIGUAMINE B], the Ki was determined as 80 nM.
